Values after ≈ are worked out from the molar mass of the structure shown. Where two headings read alike, the source gives them in different places.

Test [1] deals with T1, E. coli gyrase (Escherichia coli, UniProt P0AES4+P0AES6).
T1 construct: purchased Inspiralis (Norwich, UK) TRG01
In words: Gyrase microplate assay. It counts as biochemical. Conditions: agent 10-75 μM, FIG. 6. How it is done: (§1) The effect of the antimicrobial agents on gyrase was assessed using E. coli gyrase microplate assay kit (# TRG01) and with S. aureus gyrase microplate assay kit (# SATRG01). The effect of topoisomerase IV using was assessed using E. coli Topo IV microplate assay kit (# TRIV01) and with the S. aureus Topo IV microplate assay kit (# SATRIV01). All of these assay kits were obtained from Inspiralis (Norwich, UK). These assay kits are supplied with the relevant enzyme, substrate and buffers.
(§2) 1. Rehydrate wells with 3×200 μl Wash buffer (diluted from 20× stock with ultra-pure water).
(§3) 2. Immobilise 100 μl of 500 nM TF01 oligo in each well (5 μl of 10 μM TF01 oligo in 95 μl wash buffer).
(§4) 3. Incubate 5 minutes at room temperature.
(§5) 4. Wash off excess oligo with 3×200 μl Wash buffer.
(§6) 5. Incubate 2U (0.4 μl stock) of gyrase with 0.75 μg of relaxed pN01 in a reaction volume of 30 μl at 37° C. for 30 minutes in assay buffer—This is the part agent is added therefore the reaction volume is adjusted to account for this.
(§7) 6. Add 100 μl TF buffer (diluted from 20× stock) to well and incubate for a further 30 minutes at room temperature to allow triplex formation.
(§8) 7. Remove liquid from well and wash with 3×200 μl TF buffer to wash away unbound plasmid.
(§9) 8. Stain with DNA detection dye (diluted to ix with T10 buffer). Add 200 μl per well and incubate for 10-20 minutes at room temperature.
(§10) 9. Mix well and read in fluorescence plate reader Excitation wavelength: 495 nm; Emission wavelength: 537 nm. Use 485/520 filters in plate reader in 231.
(§11) 10. If required 10 μl of sample can be used to run on 1% agarose gel.
(§12) As the reaction volume is 30 μl make concentrations at 30× greater than required so 1 μl of the appropriate concentration can be added to the reaction. For each agent concentrations from a range of 10-75 μM.
(§13) Xmin—minima among all data points
(§14) Xmax—maxima among all data points
(§15) Xi0-1—data point normalised between 0-1

Test [2] addresses T2, S. aureus gyrase (Staphylococcus aureus, UniProt P0A0K8+P20831).
T2 construct: purchased Inspiralis (Norwich, UK) SATRG01
In words: Gyrase microplate assay. It counts as biochemical. As to conditions: agent 10-75 μM, FIG. 6. How it is done:
as §1, §2, §3, §4, §5, §6, §7, §8, §9, §10, §11, §12, §13, §14, §15

Test [3] relates to A. baumannii AYE. The test can be described thus: General MIC protocol, Gram negative. It counts as cell-based. As to conditions: Acinetobacter baumannii. The gist of the method: (§16)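 TSB cultures at 5×10^5/ml exposed to halving compound concentrations (32 μg/ml highest final); 20 h incubation at 37° C, growth measured at 600 nm.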
The test system of test [4] is A. baumannii NCTC 17978. In words: General MIC protocol, Gram negative. It counts as cell-based. Conditions: Acinetobacter baumannii, NCTC17978. The gist of the method:
as §16

For test [5], the system named is K. pneumonia KP16. The test can be described thus: General MIC protocol, Gram negative. It counts as cell-based. Conditions: Klebsiella pneumoniae, KP16. The method in brief:
as §16

Test [6] has as its system K. pneumonia M6. The test can be described thus: General MIC protocol, Gram negative. It counts as cell-based. Conditions: Klebsiella pneumoniae; KP-M6. The method in brief:
as §16

The test system of test [7] is K. pneumonia NCTC 13368. In words: General MIC protocol, Gram negative. Conditions: Klebsiella pneumoniae, NCTC13368. It counts as cell-based. The method in brief: as §16
Test [8] has as its system K. pneumonia NCTC 13438. The test can be described thus: General MIC protocol, Gram negative. It counts as cell-based. As to conditions: Klebsiella pneumoniae, NCTC13438. The method in brief: as §16
For test [9], the system named is K. pneumonia NCTC 13443. The test can be described thus: General MIC protocol, Gram negative. It counts as cell-based. As to conditions: Klebsiella pneumoniae, NCTC13443. The gist of the method:
as §16

The subject of test [10] is K. pneumonia NCTC 51851. The test can be described thus: General MIC protocol, Gram negative. It counts as cell-based. As to conditions: Klebsiella pneumoniae, NCTC51851. The gist of the method: as §16
Test [11] relates to P. aeruginosa NCTC 13437. In words: General MIC protocol, Gram negative. It counts as cell-based. The gist of the method:
as §16

Test [12] relates to AYE. In words: Effect of efflux pump inhibitors (EPIs) on MIC. It counts as cell-based, A. bauamnnii. Conditions: for +PABN MIC: PABN at 25 μg/ml. How it is done:
1. Grow up cultures of bacterial strains to be tested overnight.
2. Dilute down overnight cultures to concentration of 1×10^6 bacteria/ml (OD0.01) in Tryptic soy broth (TSB).
3. Add 100 μl of TSB media to column 2-column 12 in 96 well plate (keeping column 1 clear).
4. Make up compound to a concentration of 64 μg/ml in water.
5. Add 100 μl of antibiotic solution to the 1st and 2nd columns.
6. Using a multichannel pipette take 100 μl from the 2nd column wells and pipette into 3rd column wells and repeat down the 96 well plate (remember to include controls i.e. uninfected media and media with no antibiotic).
7. To each well (except uninfected control row H) add 50 μl/well of EPI at 4× final concentration in TSB.
9. In wells used to test the effect of the EPI carbonyl cyanide 3-chlorophenylhydrazone (CCCP) the CCCP is added at 10 μg/ml final concentration.
10. In wells used to test the effect of the EPI phenylalanine-arginine β-naphthylamide (PABN) the PABN is added at 25 μg/ml final concentration.
11. In wells used to test the effect of the PABN+Mg, the PABN is added at 25 μg/ml final concentration, with 1 mM MgSO4 in TSB.
12. Wrap plate with parafilm to prevent evaporation.
13. Leave at desired temperature (37° C. unless specified elsewhere) for 20 hours.
14. Next day check plates for growth and measure optical density (i.e. absorbance) at a wavelength of 600 nm (OD600).
Compound KMR-14-33 was tested against a range of bacterial species using the above protocol. Compound PP-A148 was also tested against a more limited range of bacterial species using the above protocol. For KMR-14-33 measurements were carried out for the compound alone, for the compound plus CCCP, for the compound plus PABN and for the compound plus PABN and plus Mg. For PP-A148 measurements were carried out for the compound alone and for the compound plus PABN.

Setting [13] is: Pseudomonas aeruginosa, NCTC13437.
The mark [14] stands for this setting: read-out: Control with no EPI MIC.

T2 sequence (P0A0K8 whole entry): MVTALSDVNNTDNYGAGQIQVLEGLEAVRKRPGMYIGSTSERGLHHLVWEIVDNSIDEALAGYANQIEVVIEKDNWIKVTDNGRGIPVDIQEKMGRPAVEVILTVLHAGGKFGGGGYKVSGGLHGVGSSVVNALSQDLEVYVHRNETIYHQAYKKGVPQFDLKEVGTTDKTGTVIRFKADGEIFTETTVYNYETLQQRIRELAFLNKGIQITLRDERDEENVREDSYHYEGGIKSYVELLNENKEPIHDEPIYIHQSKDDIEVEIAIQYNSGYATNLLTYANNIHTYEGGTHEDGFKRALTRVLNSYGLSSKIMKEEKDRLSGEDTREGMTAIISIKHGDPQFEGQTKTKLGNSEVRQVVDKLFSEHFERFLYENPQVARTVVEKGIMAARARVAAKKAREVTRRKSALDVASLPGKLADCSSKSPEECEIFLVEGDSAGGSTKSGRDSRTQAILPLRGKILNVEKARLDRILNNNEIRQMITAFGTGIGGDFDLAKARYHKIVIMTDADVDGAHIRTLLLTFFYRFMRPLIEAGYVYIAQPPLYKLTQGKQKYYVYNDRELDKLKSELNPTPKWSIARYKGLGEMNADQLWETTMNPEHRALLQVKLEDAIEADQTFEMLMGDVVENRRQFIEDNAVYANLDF
T2 sequence (P20831 whole entry): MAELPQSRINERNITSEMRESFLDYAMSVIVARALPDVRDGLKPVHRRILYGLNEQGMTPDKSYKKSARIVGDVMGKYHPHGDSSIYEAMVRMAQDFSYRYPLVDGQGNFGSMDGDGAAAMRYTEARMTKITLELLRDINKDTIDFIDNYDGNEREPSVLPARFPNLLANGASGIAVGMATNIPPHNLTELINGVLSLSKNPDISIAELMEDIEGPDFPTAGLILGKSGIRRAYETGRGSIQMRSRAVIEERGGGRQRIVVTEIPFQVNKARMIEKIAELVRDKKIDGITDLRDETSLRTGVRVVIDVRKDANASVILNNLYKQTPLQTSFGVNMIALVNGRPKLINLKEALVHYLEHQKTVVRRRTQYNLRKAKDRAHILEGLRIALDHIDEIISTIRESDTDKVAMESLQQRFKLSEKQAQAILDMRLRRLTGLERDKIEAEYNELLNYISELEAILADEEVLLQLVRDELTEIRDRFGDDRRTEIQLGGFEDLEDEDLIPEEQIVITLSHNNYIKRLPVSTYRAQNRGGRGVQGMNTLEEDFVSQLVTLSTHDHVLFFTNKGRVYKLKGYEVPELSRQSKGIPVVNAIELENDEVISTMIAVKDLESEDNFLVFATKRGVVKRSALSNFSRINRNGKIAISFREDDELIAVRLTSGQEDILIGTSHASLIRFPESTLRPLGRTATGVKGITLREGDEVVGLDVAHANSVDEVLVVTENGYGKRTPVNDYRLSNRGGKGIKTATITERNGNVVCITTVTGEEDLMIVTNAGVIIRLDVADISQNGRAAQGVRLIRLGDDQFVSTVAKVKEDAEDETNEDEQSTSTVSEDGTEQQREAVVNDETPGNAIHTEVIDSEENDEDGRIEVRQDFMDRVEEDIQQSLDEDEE
T1 sequence (P0AES4 whole entry, one chain of several): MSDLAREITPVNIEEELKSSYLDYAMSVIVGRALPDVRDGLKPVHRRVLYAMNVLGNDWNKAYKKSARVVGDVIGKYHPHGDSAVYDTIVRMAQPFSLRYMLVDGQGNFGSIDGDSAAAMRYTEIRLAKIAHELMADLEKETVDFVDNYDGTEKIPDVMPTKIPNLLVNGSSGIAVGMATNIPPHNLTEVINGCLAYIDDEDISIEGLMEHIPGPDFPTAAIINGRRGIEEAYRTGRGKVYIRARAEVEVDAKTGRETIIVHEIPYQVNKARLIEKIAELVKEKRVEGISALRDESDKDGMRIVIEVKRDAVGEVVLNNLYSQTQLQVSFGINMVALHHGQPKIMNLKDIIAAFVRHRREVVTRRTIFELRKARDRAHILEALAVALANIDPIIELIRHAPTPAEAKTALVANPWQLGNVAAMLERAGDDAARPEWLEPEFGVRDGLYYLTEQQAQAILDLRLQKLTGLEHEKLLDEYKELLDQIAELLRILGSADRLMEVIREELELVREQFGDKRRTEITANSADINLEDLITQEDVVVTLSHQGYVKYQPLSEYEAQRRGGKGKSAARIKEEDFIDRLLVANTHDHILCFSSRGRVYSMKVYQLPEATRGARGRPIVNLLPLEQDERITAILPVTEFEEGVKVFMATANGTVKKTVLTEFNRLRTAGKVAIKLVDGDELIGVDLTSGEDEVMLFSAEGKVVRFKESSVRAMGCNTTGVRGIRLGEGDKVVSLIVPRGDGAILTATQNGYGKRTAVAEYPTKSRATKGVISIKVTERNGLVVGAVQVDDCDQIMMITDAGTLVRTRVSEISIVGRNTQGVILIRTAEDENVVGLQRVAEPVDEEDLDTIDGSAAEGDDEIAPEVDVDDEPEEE

`O=C(O)c1cn(C2CC2)c2cc(N3CCNCC3)c(F)cc2c1=O` [CIP, ciprofloxacin, reference compound]: the effect on gyrase entry in test [1] and in test [2] was “inhibits” in each case.
Regarding `COc1cc2c(cc1OCCCC(=O)Nc1cc(C(=O)Nc3ccc4sc(C(=O)N(C)C)cc4c3)n(C)c1)N=C[C@@H]1CCCN1C2=O` [KMR-14-33, (S)—N-(2-(dimethylcarbamoyl)benzo[b]thiophen-5-yl)-4-(4-((7-methoxy-5-oxo-2,3,5,11a-tetrahydro-1H-benzo[e]pyrrolo[1,2-a][1,4]-diazepin-8-yl)oxy)butanamido)-1-methyl-1H-pyrrole-2-carboxamide], the MIC (as a rule, the smallest concentration in the dilution series that meets the test's criterion for growth inhibition) in test [3] amounted to 1 µg/mL (≈ 1.52 µM); in test [4], 0.5 µg/mL (≈ 0.761 µM); in test [5], 0.25 µg/mL (≈ 0.381 µM); in test [6], 1 µg/mL (≈ 1.52 µM); in test [7], 2 µg/mL (≈ 3.05 µM); in test [8], 0.5 µg/mL (≈ 0.761 µM). The MIC in [9] is 2 µg/mL (≈ 3.05 µM); in test [10], 2 µg/mL (≈ 3.05 µM); in test [11] (NCTC 13437, KMR-14-33 alone), 32 µg/mL (≈ 48.7 µM); in test [11] (setting [13]) it was over 32 µg/mL; in [12] (read-out: +CCCP MIC), 0.125 µg/mL (≈ 0.19 µM); in [12] (setting [14]), 1 µg/mL (≈ 1.52 µM). For the same compound, the “+PABN MIC” value in [12] (AYE) amounted to 0.125 µg/mL. For the same compound, the “+PABN + Mg MIC” value in [12] (AYE, PABN at 25 μg/ml with 1 mM MgSO4) was found to be 0.25 µg/mL.
With `COc1cc2c(cc1OCCCC(=O)Nc1cc(C(=O)Nc3ccc4oc(C(=O)N5CCSCC5)cc4c3)n(C)c1)N=C[C@@H]1CCCN1C2=O` [PP-A148, (S)-4-(4-((7-methoxy-5-oxo-2,3,5,11a-tetrahydro-1H-benzo-[e]pyrrolo[1,2-a][1,4]diazepin-8-yl)oxy)butanamido)-1-methyl-N-(2-(thiomorpholine-4-carbonyl)benzofuran-5-yl)-1H-pyrrole-2-carboxamide], the MIC in [3] was 2 µg/mL (≈ 2.86 µM); in test [4], 2 µg/mL (≈ 2.86 µM); in test [5] it was 0.25 to 0.5 µg/mL (≈ 0.358 to 0.716 µM); in test [6] it was 0.25 to 0.5 µg/mL (≈ 0.358 to 0.716 µM); in [7] it was 16 to 32 µg/mL (≈ 22.9 to 45.8 µM); in test [8], 4 to 8 µg/mL (≈ 5.72 to 11.4 µM). The MIC in [9] is 16 µg/mL (≈ 22.9 µM); in [10], 4 µg/mL (≈ 5.72 µM); in test [11] (setting [13]), 16 µg/mL (≈ 22.9 µM); in test [12] (setting [14]) it was 2 µg/mL (≈ 2.86 µM). For the same compound, the “+PABN MIC” value in test [12] (AYE) lay in the range of 0.125 to 0.5 µg/mL. Besides, the effect on gyrase result in [1] and in test [2] was “inhibits” throughout.

The values are drawn from patent publication US10640507B2, “PBD antibacterial agents” (KING'S COLLEGE LONDON, priority 2015, dated 2020).
